Measured values reported in US20070037886A1, “Bone marrow erythroid progenitor cell(s) differentiation inducer” (priority 2005, published 2007).
Entries after “also recorded” stand apart in the source; their conditions may differ. Positions of bridges follow the written chain, without caps; N, C: chain ends. No end group written: not given here.

Experiments:
[1] = system: mouse bone marrow cells (CFU-E); assay: CFU-E colony assay with EPO mimetic peptide EMP1; assay type: cell-based
Description: After a female BDF-1 mouse at 10 weeks of age (Charles River Japan, Inc.) was killed by the cervical dislocation method, bone marrow cells were isolated from the femur and suspended in an IMDM medium (Invitrogen) containing 10% FCS (JRH Bioscience Inc). The bone marrow cells were centrifuged at 1500 rpm for 10 minutes at 4° C. and the precipitated bone marrow cells were resuspended in an amino acid-free IMDM medium and the number of cells was measured. To a dish with a diameter of 3.5 cm (Nalgen Nunc, Inc. International), 1 ml of a methyl cellulose semi-solid medium in which the bone marrow cells were suspended {30 μM EMP1, 100 μM 2-mercaptoethanol (Wako Pure Chemical Industries, Ltd.), 24% FCS (JRH Bioscience Inc.), 0.8% methyl cellulose (methyl cellulose containing IMDM solution […], Stem Cell Technologies, Inc.), 2% BSA (SIGMA-ALDRICH Japan K.K.), 1×10^5 cells/ml of bone marrow cells} containing arginine at a concentration of 170 μM was added (which is equal to an IMDM medium whose concentration of the amino acid composition is one-third and which includes FCS at 24%). […] Then, the number of CFU-E colonies was measured using an inverted microscope. […] The data is expressed as a mean value ±SEM. […]

[2] = system: mouse bone marrow cells (CFU-E); assay: in vitro mouse CFU-E colony assay (methyl cellulose semi-solid medium, with rHuEPO); assay type: cell-based
Description: In the case of oral administration to rats, the blood arginine concentration reaches about 600 μM by a single-dose administration of arginine at 1.2 g/kg. Therefore, it is expected that the number of CFU-E increases in a dose-dependent manner by such an oral administration. Also in humans, it is expected that the number of CFU-E increases as the concentration of arginine in the blood increases by the oral administration.
An in vitro mouse CFU-E colony assay was carried out in accordance with the following method. After a female BDF-1 mouse at 10 weeks of age (Charles River Japan, Inc.) was killed by the cervical dislocation method, bone marrow cells were isolated from the femur and suspended in an IMDM medium (Invitrogen) containing 10% FCS (JRH Bioscience Inc). The bone marrow cells were centrifuged at 1500 rpm for 10 minutes at 4° C. and the precipitated bone marrow cells were resuspended in an amino acid-free IMDM medium and the number of cells was measured. […] Then, the number of CFU-E colonies was measured using an inverted microscope. […]
In the graph, * indicates P<0.05. The data is expressed as a mean value±SEM. […]

normal rats = details: repeated administration; cited from earlier work

GGTYSCHFGPLTWVCKPQGG-NH2 (disulfide 6-15; N-terminus assumed; SMILES CC(C)C[C@@H]1NC(=O)[C@@H]2CCCN2C(=O)CNC(=O)[C@H](Cc2ccccc2)NC(=O)[C@H](Cc2c[nH]cn2)NC(=O)[C@@H](NC(=O)[C@H](CO)NC(=O)[C@H](Cc2ccc(O)cc2)NC(=O)[C@@H](NC(=O)CNC(=O)CN)[C@@H](C)O)CSSC[C@@H](C(=O)N[C@@H](CCCCN)C(=O)N2CCC[C@H]2C(=O)N[C@@H](CCC(N)=O)C(=O)NCC(=O)NCC(N)=O)NC(=O)[C@H](C(C)C)NC(=O)[C@H](Cc2c[nH]c3ccccc23)NC(=O)[C@H]([C@@H](C)O)NC1=O) [EMP1, EPO mimetic peptide described in Science, vol; 273, pp. 458-463 (1996), reference compound]
amount of EMP1 for the highest action (CFU-E colonies) ([1]; same condition as FIG. 2A, FIG. 2B): ≥ 10 µM

N=C(N)NCCC[C@H](N)C(=O)O [arginine]
number of CFU-E colonies ([2]; arginine 600 μM vs 170 μM, 1 IU/ml rHuEPO, 48 hours, per 2.2×10^5 bone marrow cells, P<0.05): increased the number of CFU-E; also recorded: further increases CFU-E; also recorded: significantly increases
combined effect of arginine with EPO on CFU-E ([2]; arginine concomitantly with a sufficient amount of EPO): synergistic effect
number of CFU-E colonies ([1]; arginine 770 μM vs 170 μM, 30 μM EMP1, 48 hours, P<0.05): increased the number of CFU-E
amount of hemoglobin (normal rats): increased
amount of red blood cells (normal rats): increased
